The record followed here is patent US20240082341A1, “PEPTIDE FOR USE IN THE TREATMENT OR PREVENTION OF COVID-19” (Instytut Biochemii I Biofizyki Polskiej Akademii Nauk, priority 2020, published 2024).

The assay has as its target RBD domain of the S1 subunit of viral S glycoprotein (Severe acute respiratory syndrome coronavirus 2, UniProt P0DTC2). The experiment in a line: Binding of the peptides to the RBD domain of viral S glycoprotein (microscale thermophoresis, MST). More on the design: species or system SARS-CoV-2. The following applies: for binding strength compared with the native peptide (1d): RBD domain, comparison with peptide 1d.

Ends that are not written are not given here.

Consider `NC(=O)C[C@H](NC(=O)CNC(=O)[C@H](Cc1ccc(O)cc1)NC(=O)[C@@H](N)CC(=O)O)C(=O)N[C@@H](Cc1c[nH]cn1)C(=O)N[C@@H](CCC(=O)O)C(=O)O` [Peptide 2d, DYGNHE], for which the “binding strength compared with the native peptide (1d)” value is recorded as “significantly higher”. A word on the Kd: it is the concentration at which binding is half-saturated. As for MYGNYE [Peptide J3.4, MYGNYE], the Kd (peptide-RBD complex, 25° C., cell unit μM, read-out: KD (nM) Tmeasurement 25° C.) is over 10 µM.

Regarding `CSCC[C@H](N)C(=O)N[C@@H](Cc1ccc(O)cc1)C(=O)NCC(=O)N[C@@H](CC(N)=O)C(=O)N[C@@H](Cc1c[nH]cn1)C(=O)N[C@@H](CCC(=O)O)C(=O)O` [Peptide J3.2, MYGNHE], the “binding strength compared with the native peptide (1d)” value is listed as “significantly higher”.
